Laboratory results published in patent publication US6472416B1, “Sulfonylphenylpyrazole compounds useful as COX-2 inhibitors” (Abbott Laboratories, priority 1999, dated 2002).
pIC50: −log10 of the molar value. Values belong to the compound of their own block, whether it stands above or below them.

Columns and labels:
[1] = biological target: T1, recombinant human Cox-1 (r-hu Cox-1, PGHS-1) (Homo sapiens, UniProt P23219); assay: Recombinant human PGHS-1 (r-hu Cox-1) enzyme assay, PGE2 by EIA; type: biochemical
T1 construct: made in house; host or cells: baculovirus/Sf9 insect cells (microsomes)
Procedure: (§1) To compare the mean responses of the treatment groups, analysis of variance was applied. Percent inhibition values were determined by comparing the individual treatment mean values to the mean of the control group. Linear regression was used to estimate IC50's/ED50's in appropriate assays.
(§2) EIA reagents for prostaglandin determination were purchased from Perseptive Diagnostics, (Cambridge, Mass.). Prostaglandin E2 (PGE2) levels in lavage fluids were determined after the samples were dried under nitrogen and reconstituted with assay buffer. PGE2 levels in enzyme assays or cell culture media were measured against standards prepared in the same milieu. The immunoassays were conducted as recommended by the manufacturer. The EIA was conducted in 96 well microtiter plates (Nunc Roskilde, Denmark) and optical density was measured using a microplate reader (Vmax, Molecular Devices Corp., Menlo Park, Calif.).
(§3) Inhibition of prostaglandin biosynthesis in vitro was evaluated using recombinant human Cox-1 (r-hu Cox-1) and Cox-2 (r-hu Cox-2) enzyme assays. […] The reaction was allowed to run for 2.5 minutes at room temperature prior to quenching with HCl and neutralization with NaOH. PGE2 production in the presence and absence of the drug was determined by EIA analysis. The EIA was conducted in 96 well microtiter plates (Nunc Roskilde, Denmark) and optical density was measured using a microplate reader (Vmax, Molecular Devices Corp., Menlo Park, Calif.). EIA reagent for prostaglandin determination were purchased from Perseptive Diagnostics (Cambridge, Mass.). PGE2 levels were measured against standards prepared in the same milieu. The immunoassays were conducted as recommended by the manufacturer.
(§4) The compounds are designated by the Example Number. […] Values for Cox-2 inhibition that are parenthetical indicate IC50 values.

[2] = biological target: T2, recombinant human Cox-2 (r-hu Cox-2, PGHS-2) (Homo sapiens, UniProt P35354); assay: Recombinant human PGHS-2 (r-hu Cox-2) enzyme assay, PGE2 by EIA; type: biochemical
T2 construct: made in house; host or cells: baculovirus/Sf9 insect cells (microsomes)
T2 sequence (P35354 18-604): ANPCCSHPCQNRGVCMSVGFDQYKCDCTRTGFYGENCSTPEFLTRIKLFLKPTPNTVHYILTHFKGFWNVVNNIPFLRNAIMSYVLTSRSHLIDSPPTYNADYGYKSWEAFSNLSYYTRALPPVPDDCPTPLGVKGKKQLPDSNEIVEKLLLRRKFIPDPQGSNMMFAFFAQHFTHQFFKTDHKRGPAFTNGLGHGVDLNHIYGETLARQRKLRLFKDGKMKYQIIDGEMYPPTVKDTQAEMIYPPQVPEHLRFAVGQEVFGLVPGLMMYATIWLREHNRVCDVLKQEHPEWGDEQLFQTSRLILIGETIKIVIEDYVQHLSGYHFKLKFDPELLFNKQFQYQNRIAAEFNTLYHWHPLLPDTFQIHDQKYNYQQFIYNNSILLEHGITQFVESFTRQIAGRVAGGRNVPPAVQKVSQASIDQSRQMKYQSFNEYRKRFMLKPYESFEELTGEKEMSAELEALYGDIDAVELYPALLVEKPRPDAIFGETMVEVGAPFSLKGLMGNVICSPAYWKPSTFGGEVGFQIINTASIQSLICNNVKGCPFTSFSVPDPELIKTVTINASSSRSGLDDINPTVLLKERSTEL
Procedure: as §1, §2, §3, §4

[3] = at 100 μM, read-out: r-hu COX1 percent inhibition
[4] = at 100 nM, read-out: r-hu COX2 percent inhibition

T1 sequence (P23219 24-599): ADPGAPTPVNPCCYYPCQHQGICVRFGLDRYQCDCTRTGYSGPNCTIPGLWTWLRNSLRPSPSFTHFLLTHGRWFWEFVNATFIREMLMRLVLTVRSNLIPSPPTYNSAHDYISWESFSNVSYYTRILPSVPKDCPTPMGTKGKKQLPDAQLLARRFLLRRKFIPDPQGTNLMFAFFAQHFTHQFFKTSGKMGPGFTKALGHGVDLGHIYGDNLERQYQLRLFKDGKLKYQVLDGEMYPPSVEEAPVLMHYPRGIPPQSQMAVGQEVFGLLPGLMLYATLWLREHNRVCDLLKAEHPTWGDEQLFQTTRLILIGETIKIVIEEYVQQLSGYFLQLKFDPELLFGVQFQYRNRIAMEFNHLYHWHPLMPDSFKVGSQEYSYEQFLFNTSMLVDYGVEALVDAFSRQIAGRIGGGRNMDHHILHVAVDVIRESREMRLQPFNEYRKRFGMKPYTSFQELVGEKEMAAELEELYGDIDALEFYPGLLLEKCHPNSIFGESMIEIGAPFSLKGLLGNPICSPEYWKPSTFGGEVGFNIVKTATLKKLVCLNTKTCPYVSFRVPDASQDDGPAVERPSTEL

Structure (SMILES): CCn1nc(OCC(=O)C(C)(C)C)c(-c2ccc(F)cc2)c1-c1ccc(S(N)(=O)=O)cc1 [Example 29, 1-[(1-Ethyl-4-(4-fluorophenyl)-5-(4-(aminosulphonyl)phenyl)-1H-pyrazol-3-yl)oxy]-3,3-dimethylbutan-2-one]
inhibition at 100 µM [1, 3]: 54%
inhibition at 0.1 µM [2, 4]: 55%
melting point: 196 to 198 °C

Structure (SMILES): C=CCOc1nn(CC=C)c(-c2ccc(S(C)(=O)=O)cc2)c1-c1ccc(F)cc1 [Example 9, 1-allyl-3-(allyloxy)-4-(4-fluorophenyl)-5-(4-(methylsulphonyl)phenyl)-1H-pyrazole]
inhibition at 100 µM [1, 3]: 36%
inhibition at 1 µM ([2]; at 1000 nM, read-out: r-hu COX2 percent inhibition): 62%

Structure (SMILES): CS(=O)(=O)c1ccc(-c2[nH]nc(OC3CCCCC3=O)c2-c2ccc(F)cc2)cc1 (stereo not shown) [Example 15, 2-{[4-(4-Fluorophenyl)-5-(4-methylsulphonylpheny)-1H-pyrazol-3-yl]oxy}cyclohexanone]
r-hu COX1 percent inhibition ([1]; at 10 μM): 69 @ 10%
r-hu COX2 percent inhibition ([2]; at 100 nM): 47 @ 100%

Structure (SMILES): CS(=O)(=O)c1ccc(-c2c(-c3ccc(F)cc3)c(OCc3ccccc3)nn2Cc2ccccc2)cc1 [Example 7, 4-(4-Fluorophenyl)-5-(4-(methylsulphonyl)phenyl)-3-benzyloxy-1-benzyl-1H-pyrazole]
inhibition at 100 µM [1, 3]: 26%
inhibition at 0.1 µM [2, 4]: 42%
melting point: 174 to 175 °C

Structure (SMILES): CCn1nc(OC2CSCCC2=O)c(-c2ccc(F)cc2)c1-c1ccc(S(C)(=O)=O)cc1 (stereo not shown) [Example 24, 3-[(1-Ethyl-4-(4-fluorophenyl)-5-(4-(methylsulphonyl)phenyl)-1H-pyrazol-3-yl)oxy]tetrahydro-4H-thiopyran-4-one]
inhibition at 100 µM [1, 3]: 20%
inhibition at 0.1 µM [2, 4]: 37%
melting point: 210 to 211 °C

Structure (SMILES): CCn1nc(OCC(=O)c2ccc(F)cc2)c(-c2ccc(F)cc2)c1-c1ccc(OC)cc1 [Example 18, 2-{[1-Ethyl-5-(4-methoxyphenyl)-4-(4-fluorophenyl)-1H-pyrazol-3-yl]oxy}-1-(4-fluorophenyl)ethan-1-one]
inhibition at 100 µM [1, 3]: 7%
inhibition at 0.1 µM [2, 4]: 50%
melting point: 170 to 171 °C

Structure (SMILES): C=CCn1nc(OCC(=O)c2cccs2)c(-c2ccc(F)cc2)c1-c1ccc(S(C)(=O)=O)cc1 [Example 22, 2-[(1-Allyl-4-(4-fluorophenyl)-5-(4-(methylsulphonyl)phenyl)-1H-pyrazol-3-yl)oxy]-1-(2-thienyl)ethan-1-one]
inhibition at 100 µM [1, 3]: 0%
pIC50 ([2]; read-out: r-hu COX2 IC50 (parenthetical values)): 7.22
melting point: 146 to 148 °C

Structure (SMILES): C=CCn1nc(Oc2ccccc2)c(-c2ccc(F)cc2)c1-c1ccc(S(C)(=O)=O)cc1 [Example 14, 1-Allyl-4-Fluorophenyl-5-(4-(methylsulphonyl)phenyl)-3-phenoxy-1H-pyrazole]
r-hu COX1 percent inhibition ([1]; at 100 μM): 45 @ 100%
r-hu COX2 percent inhibition ([2]; at 10000 nM): 37 @ 10000%

Structure (SMILES): CS(=O)(=O)c1ccc(-c2c(-c3ccc(F)cc3)c(OCC(=O)c3cccs3)nn2CC(=O)c2cccs2)cc1 [Example 20A, 2-{4-(4-Fluorophenyl)-5-(4-(methylsulphonyl)phenyl)-3-[2-(2-thienyl)-2-oxoethoxy]-1H-pyrazol-1-yl}-1-(2-thienyl)ethan-1-one]
inhibition at 10 µM ([1]; at 10 μM, read-out: r-hu COX1 percent inhibition): 81%
inhibition at 0.1 µM [2, 4]: 38%
melting point: 136 to 138 °C

Structure (SMILES): CS(=O)(=O)c1ccc(-c2c(-c3ccc(F)cc3)c(OCc3ccc(F)cc3)nn2Cc2ccc(F)cc2)cc1 [Example 8, 4-(4-fluorophenyl)-5-(4-(methylsulphonyl)phenyl)-1-(4-fluorobenzyl)-3-((4-fluorobenzyl)oxy)-1H-pyrazole]
inhibition at 100 µM [1, 3]: 29%
inhibition at 10 µM ([2]; at 10000 nM, read-out: r-hu COX2 percent inhibition): 48%

Structure (SMILES): CS(=O)(=O)c1ccc(-c2c(-c3ccc(F)cc3)c(OCc3c(F)cccc3Cl)nn2Cc2c(F)cccc2Cl)cc1 [Example 64, 1-(2-Chloro-6-fluorobenzyl)-3-[(2-chloro-6-fluorobenzyl)oxy]-4-(4-fluorophenyl)-5-(4-(methylsulphonyl)phenyl)-1H-pyrazole]
melting point: 195 to 196 °C

Structure (SMILES): CCn1nc(OCC(=O)C(C)(C)C)c(-c2ccc(S(C)(=O)=O)cc2)c1-c1ccc(F)cc1 [Example 78, 1-[(1-Ethyl-5-(4-fluorophenyl)-4-(4-(methylsulphonyl)phenyl)-1H-pyrazol-3-yl)oxy]-3,3-dimethylbutan-2-one]
melting point: 63 to 66 °C

Structure (SMILES): CS(=O)(=O)c1ccc(-c2nn3c(c2-c2ccc(F)cc2)Oc2ccccc2C3)cc1 [Example 6, 3-(4-Fluorophenyl)-2-(4-(methylsulphonyl)phenyl)-5H-pyrazolo[1,5-b][1,3]-benzoxazine]
r-hu COX1 percent inhibition ([1]; at 100 μM): 25 @ 100%
r-hu COX2 percent inhibition ([2]; at 100 nM): 82 @ 100%

Structure (SMILES): Cc1c(-c2cccc(C(F)(F)F)c2)oc2c(-c3ccc(F)cc3)c(-c3ccc(S(C)(=O)=O)cc3)nn12 [Example 46, 6-(4-(Methylsulphonyl)phenyl)-7-(4-fluorophenyl)-3-methyl-2-[3-(trifluoromethyl)phenyl]pyrazolo[5,1-b][1,3]oxazole]
melting point: 194 to 195 °C

The remaining lines, values ahead:

r-hu COX1 percent inhibition ([1]; at 100 μM): 12 @ 100%
r-hu COX2 percent inhibition ([2]; at 10000 nM): 62 @ 10000%
Structure (SMILES): CS(=O)(=O)c1ccc(-c2nn3c(c2-c2ccc(F)cc2)OCC=CC3)cc1 [Example 4, 3-(4-Fluorophenyl)-2-(4-methylsulponylphenyl)-5,8-dihydropyrazolo[5,1-b][1,3]oxazepine]

melting point: 151 to 154 °C
Structure (SMILES): CS(=O)(=O)c1ccc(-c2nn3c(-c4ccccc4)coc3c2-c2ccc(F)cc2)cc1 [Example 37, 7-(4-Fluorophenyl)-6-(4-(methylsulphonyl)phenyl)-3-phenylpyrazolo[5,1-b][1,3]oxazole]

melting point: 158 to 160 °C
Structure (SMILES): Cc1oc2c(-c3ccc(F)cc3)c(-c3ccc(S(C)(=O)=O)cc3)nn2c1C [Example 48, 7-(4-Fluorophenyl)-6-(4-methylsulfonylphenyl)-2,3-dimethylpyrazolo[5,1-b][1,3]oxazole]

melting point: 231 to 232 °C
Structure (SMILES): Cc1c(C#N)oc2c(-c3ccc(F)cc3)c(-c3ccc(S(N)(=O)=O)cc3)nn12 [Example 59, 6-(4-(Aminosulphonyl)phenyl)-2-cyano-7-(4-Fluorophenyl)-3-methyl-pyrazolo[5,1-b][1,3]oxazole]

r-hu COX1 percent inhibition ([1]; at 10 μM): 99 @ 10%
r-hu COX2 percent inhibition ([2]; at 100 nM): 88 @ 100%
Structure (SMILES): CC(C)(C)c1coc2c(-c3ccc(F)cc3)c(-c3ccc(S(N)(=O)=O)cc3)nn12 [Example 55]

melting point: 236 to 238 °C
Structure (SMILES): Cc1c(C#N)oc2c(-c3ccc(F)cc3)c(-c3ccc(S(C)(=O)=O)cc3)nn12 [Example 54, 2-Cyano-7-(4-fluorophenyl)-3-methyl-6-(4-(methylsulphonyl)phenyl)pyrazolo[5,1-b][1,3]oxazole]

melting point: 289 to 291 °C
Structure (SMILES): CS(=O)(=O)c1ccc(-c2c(-c3ccc(F)cc3)nn3c(-c4ccc(F)cc4)coc23)cc1 [Example 73, 3,6-Bis(4-fluorophenyl)-7-(4-methylsulfonylphenyl)pyrazolo[5,1-b][1,3]oxazole]

melting point: 240 to 241 °C
Structure (SMILES): Cc1oc2c(-c3ccc(F)cc3)c(-c3ccc(S(C)(=O)=O)cc3)nn2c1-c1cccs1 [Example 44, 7-(4-Fluorophenyl)-3-(2-thienyl)-2-methyl-6-(4-(methylsulphonyl)phenyl)pyrazolo[5,1-b][1,3]oxazole]

melting point: 200 to 202 °C
Structure (SMILES): CS(=O)(=O)c1ccc(-c2nn3c(-c4ccc(F)cc4)coc3c2-c2ccc(F)cc2)cc1 [Example 36B, 3,7-Bis(4-fluorophenyl)-6-(4-(methylsulphonyl)phenyl)pyrazolo[5,1-b][1,3]oxazole]

melting point: 234 to 236 °C
Structure (SMILES): CCc1coc2c(-c3ccc(F)cc3)c(-c3ccc(S(N)(=O)=O)cc3)nn12 [Example 62, 6-(4-(aminosulphonyl)phenyl)-3-Ethyl-7-(4-fluorophenyl)pyrazolo[5,1-b][1,3]oxazole]
